Assay results from US6667387B1, “HCV core peptides” (priority 1992, dated 2003).
Ends that are not written are not given here.

Columns and labels:
[1] = tested on: antibodies in sera from HCV-seropositive donors; experiment: ELISA with HCV antibody-positive sera (biotinylated peptides on streptavidin- or avidin-coated plates, unbiotinylated peptides coated directly); assay type: binding, human
How it was run: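 Read-out is OD at 450 nm after HRP goat anti-human Ig and TMB development, following 1 h at 37° C. with seropositive or negative sera diluted 1:100 (or 20-fold). Antigen was either unbiotinylated peptide adsorbed on plastic (pH 9.6 carbonate, 2–5 or 3 μg/ml) or biotinylated peptide at 1 μg/ml captured on streptavidin-coated wells, with casein blocking.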

[2] = ELISA with seronegative / negative control sera (specificity); assay type: binding, human
How it was run: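 Specificity readout is OD at 450 nm (HRP goat anti-human Ig, TMB/H2O2, sulfuric acid stop), with ≥0.250 counted positive. Seronegative donor sera (typically 1:100, 1 h, 37° C) were applied to casein-blocked wells coated with peptide directly or via streptavidin capture of biotinylated peptide.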

Sequence: IIPDREVLYREFDEMEECSQ
- optical density (450 nm) ([1]; Table 4F, serum 8315, 20-fold dilution): 2.614
- optical density (450 nm) ([1]; Table 4F, serum 8316, 20-fold dilution): 0.133
- optical density (450 nm) ([1]; Table 4F, serum 8317, 20-fold dilution): 0.855
- optical density (450 nm) ([1]; Table 4F, serum 8318, 20-fold dilution): 1.965
- optical density (450 nm) ([1]; Table 4F, serum 8320, 20-fold dilution): 0.721
- optical density (450 nm) ([1]; Table 4F, serum 8321, 20-fold dilution): 0.283
- optical density (450 nm) ([1]; Table 4F, serum 8326, 20-fold dilution): 2.219
- optical density (450 nm) ([1]; Table 5, sample 8242 (positive), peptide concentration 0.01 micrograms per milliliter, listed as Unbiotinylated HCV peptide IX): 0.049
- optical density (450 nm) ([1]; Table 5, sample 8242 (positive), peptide concentration 0.03 micrograms per milliliter, listed as Unbiotinylated HCV peptide IX): 0.047
- optical density (450 nm) ([1]; Table 5, sample 8242 (positive), peptide concentration 0.1 micrograms per milliliter, listed as Unbiotinylated HCV peptide IX): 0.046
- optical density (450 nm) ([1]; Table 5, sample 8242 (positive), peptide concentration 0.3 micrograms per milliliter, listed as Unbiotinylated HCV peptide IX): 0.048
- optical density (450 nm) ([1]; Table 5, sample 8242 (positive), peptide concentration 1.0 micrograms per milliliter, listed as Unbiotinylated HCV peptide IX): 0.052
- optical density (450 nm) ([1]; Table 5, sample 8242 (positive), peptide concentration 3.0 micrograms per milliliter, listed as Unbiotinylated HCV peptide IX): 0.059
- optical density (450 nm) ([1]; Table 5, sample 8243 (positive), peptide concentration 0.01 micrograms per milliliter, listed as Unbiotinylated HCV peptide IX): 0.054
- optical density (450 nm) ([1]; Table 5, sample 8243 (positive), peptide concentration 0.03 micrograms per milliliter, listed as Unbiotinylated HCV peptide IX): 0.051
- optical density (450 nm) ([1]; Table 5, sample 8243 (positive), peptide concentration 0.1 micrograms per milliliter, listed as Unbiotinylated HCV peptide IX): 0.051
- optical density (450 nm) ([1]; Table 5, sample 8243 (positive), peptide concentration 0.3 micrograms per milliliter, listed as Unbiotinylated HCV peptide IX): 0.051
- optical density (450 nm) ([1]; Table 5, sample 8243 (positive), peptide concentration 1.0 micrograms per milliliter, listed as Unbiotinylated HCV peptide IX): 0.053
- optical density (450 nm) ([1]; Table 5, sample 8243 (positive), peptide concentration 3.0 micrograms per milliliter, listed as Unbiotinylated HCV peptide IX): 0.063
- optical density (450 nm) ([1]; Table 5, sample 8320 (positive), peptide concentration 0.01 micrograms per milliliter, listed as Unbiotinylated HCV peptide IX): 0.059
- optical density (450 nm) ([1]; Table 5, sample 8320 (positive), peptide concentration 0.03 micrograms per milliliter, listed as Unbiotinylated HCV peptide IX): 0.057
- optical density (450 nm) ([1]; Table 5, sample 8320 (positive), peptide concentration 0.1 micrograms per milliliter, listed as Unbiotinylated HCV peptide IX): 0.063
- optical density (450 nm) ([1]; Table 5, sample 8320 (positive), peptide concentration 0.3 micrograms per milliliter, listed as Unbiotinylated HCV peptide IX): 0.122
- optical density (450 nm) ([1]; Table 5, sample 8320 (positive), peptide concentration 1.0 micrograms per milliliter, listed as Unbiotinylated HCV peptide IX): 0.093
- optical density (450 nm) ([1]; Table 5, sample 8320 (positive), peptide concentration 3.0 micrograms per milliliter, listed as Unbiotinylated HCV peptide IX): 0.129
- optical density (450 nm) ([1]; Table 5, sample 8326 (positive), peptide concentration 0.01 micrograms per milliliter, listed as Unbiotinylated HCV peptide IX): 0.049
- optical density (450 nm) ([1]; Table 5, sample 8326 (positive), peptide concentration 0.03 micrograms per milliliter, listed as Unbiotinylated HCV peptide IX): 0.051
- optical density (450 nm) ([1]; Table 5, sample 8326 (positive), peptide concentration 0.1 micrograms per milliliter, listed as Unbiotinylated HCV peptide IX): 0.068
- optical density (450 nm) ([1]; Table 5, sample 8326 (positive), peptide concentration 0.3 micrograms per milliliter, listed as Unbiotinylated HCV peptide IX): 0.078
- optical density (450 nm) ([1]; Table 5, sample 8326 (positive), peptide concentration 1.0 micrograms per milliliter, listed as Unbiotinylated HCV peptide IX): 0.068
- optical density (450 nm) ([1]; Table 5, sample 8326 (positive), peptide concentration 3.0 micrograms per milliliter, listed as Unbiotinylated HCV peptide IX): 0.084
- optical density (450 nm) ([2]; Table 4F, negative serum): 0.052
- optical density (450 nm) ([2]; Table 5, sample 1747 (negative), peptide concentration 0.01 micrograms per milliliter, listed as Unbiotinylated HCV peptide IX): 0.045
- optical density (450 nm) ([2]; Table 5, sample 1747 (negative), peptide concentration 0.03 micrograms per milliliter, listed as Unbiotinylated HCV peptide IX): 0.045
- optical density (450 nm) ([2]; Table 5, sample 1747 (negative), peptide concentration 0.1 micrograms per milliliter, listed as Unbiotinylated HCV peptide IX): 0.045
- optical density (450 nm) ([2]; Table 5, sample 1747 (negative), peptide concentration 0.3 micrograms per milliliter, listed as Unbiotinylated HCV peptide IX): 0.044
- optical density (450 nm) ([2]; Table 5, sample 1747 (negative), peptide concentration 1.0 micrograms per milliliter, listed as Unbiotinylated HCV peptide IX): 0.046
- optical density (450 nm) ([2]; Table 5, sample 1747 (negative), peptide concentration 3.0 micrograms per milliliter, listed as Unbiotinylated HCV peptide IX): 0.046
- optical density (450 nm) ([2]; Table 5, sample 1781 (negative), peptide concentration 0.01 micrograms per milliliter, listed as Unbiotinylated HCV peptide IX): 0.051
- optical density (450 nm) ([2]; Table 5, sample 1781 (negative), peptide concentration 0.03 micrograms per milliliter, listed as Unbiotinylated HCV peptide IX): 0.049
- optical density (450 nm) ([2]; Table 5, sample 1781 (negative), peptide concentration 0.1 micrograms per milliliter, listed as Unbiotinylated HCV peptide IX): 0.052
- optical density (450 nm) ([2]; Table 5, sample 1781 (negative), peptide concentration 0.3 micrograms per milliliter): 0.051
- optical density (450 nm) ([2]; Table 5, sample 1781 (negative), peptide concentration 1.0 micrograms per milliliter, listed as Unbiotinylated HCV peptide IX): 0.052
- optical density (450 nm) ([2]; Table 5, sample 1781 (negative), peptide concentration 3.0 micrograms per milliliter): 0.053
